Measurements taken from patent publication US5824646A, “Intravaginal delivery of biologically active polypeptides” (Teikoku Seiyaku Co., Ltd., priority 1997, dated 1998).
Where no end group is shown, it is not given here.

Experiments:
intravaginal protease = experiment: Protease activity of vaginal wash with BAEE as substrate after intravaginal preparation; assay type: biochemical, rat
Protocol: The calcitonin pharmaceutical preparation was prepared according to Examples 1 and 2. The preparation was inserted into the vagina with a small cotton ball. Two hours after the insertion, the inserted cotton ball was removed from the vagina. The vagina was then washed with a fixed quantity of phosphate buffered saline solution, the washed solution was combined with the cotton ball, and the protease activity was determined with BAEE as substrate.

[1] = test system: oophorectomized female Wister rats; experiment: Serum calcium decrease after intravaginal porcine calcitonin in young oophorectomized rats; assay type: in vivo, rat
Protocol: Oophorectomy was performed on 5- to 6-week old female Wister rats which, after about one month, were used in this experiment as an animal model for postmenopausal women.
To 20 I.U. porcine calcitonin, 3 mg of bovine serum albumin (BSA) was added. Sodium lauryl sulfate (hereinafter called "SDS") was then added to the above-prepared mixture to make 0.05, 0.1, 0.5 and 1 w/v% concentrations, respectively. The mixtures of different SDS concentrations were then each diluted with 0.1M acetic acid/sodium acetate buffer solution (pH 5.0) to make 1 ml calcitonin solutions. Rats were anesthetized with ether, and a required amount of blood was taken from the right external jugular vein before the administration of calcitonin. After a small cotton ball was inserted into the vagina of the rat, each 50 microliters of calcitonin solution of different SDS concentrations was administered. Blood was again extracted 2 hours after calcitonin administration.
After the separation of blood serum, serum calcium concentration was determined with a Calcium C test kit, a registered trademark at Wako Chemical in Japan. The results are depicted in FIG. 1.
Oophorectomized menopausal model rats were used in this experiment, similarly to Example 1.
Bovine serum albumin was added to each 1 ml of 2, 10, 20, 40 and 80 I.U./ml of porcine calcitonin dissolved in acetic acid buffer solution (pH 5.0) to make 3 mg/ml. Then, SDS was added to each solution to make 1 w/v%. Similarly to Example 1, these preparations containing different concentrations of calcitonin were administered intravaginally to the rats, and the serum calcium concentration was determined. […] The largest ratio of decreased serum calcium against control noted in this experiment was 30%.

oophorectomized rats [2] = experiment: Serum H-CT (RIA) and serum calcium after intravaginal H-CT with sodium caprate and Nonidet P-40; assay type: in vivo, rat; details: 250 micrograms H-CT, 0.3% BSA, 1% sodium caprate, 2% Nonidet P-40, pH 5, 1, 2 and 4 hours
Protocol: Oophorectomized rats were used in this experiment in a similar manner as Example 3. 1 mg of H--CT was dissolved in 400 microliters of 0.1M acetate buffer (pH 5) containing 0.3 w/v% bovine serum albumin (BSA) and 1% sodium caprate and 2% Nonidet P-40. 100 microliters of H--CT solution (250 micrograms H--CT) was administered into the vagina of the rat with a small cotton ball. Blood samples were taken from the right external jugular vein of the anesthetized rats at 1, 2 and 4 hours after administration. Serum calcium was determined with a Calcium C test kit. Serum H--CT was also determined by the RIA method using human calcitonin antibody.

oophorectomized rats [3] = experiment: Serum calcitonin (RIA) and serum calcium after intravaginal human calcitonin with SDS; assay type: in vivo, rat; details: 10-200 micrograms HCT per kg, 0.3% BSA, 1 w/v% SDS, pH 5, 2 hours
Protocol: Similarly to Examples 1 and 2, oophorectomized rats were used in this experiment. 1000 micrograms of Human calcitonin (HCT) was dissolved in 1 ml of 0.1M acetate buffer (pH 5) containing 0.3 w/v% bovine serum albumin and 1 w/v% SDS. 10, 25, 50, 100 and 200 micrograms of HCT (protein weight) in solution per 1 kg body weight of rats were taken out of the HCT solution mentioned above, and each portion of the HCT solution was diluted up to 50 microliters with 0.1M acetate buffer (pH 5) containing 0.3% (w/v%) bovine serum albumin and 1 w/v% SDS. Each 50 microliters of HCT solution with a different amount of HCT was administered into the vagina with a small cotton ball. Two hours after drug administration, blood was extracted from the right external jugular vein of the anesthetized rat, and serum calcium was determined with a Calcium C test kit. Serum calcitonin was also determined by a radioimmunoassay method (RIA method), using human calcitonin antibody.

oophorectomized rats [4] = experiment: Serum glucose after intravaginal insulin preparation; assay type: in vivo, rat; details: 5 U. insulin, 1 w/v% SDS
Protocol: The oophorectomized rats described in Example 1 were used in this experiment. The insulin pharmaceutical preparation prepared according to this invention was administered intravaginally to the rats, and the change in plasma glucose was investigated. Bovine serum albumin and SDS were added to a solution of 100 U./ml insulin in 0.1M acetic acid/sodium acetate buffer solution to make a final concentration of 3 mg/ml and 1 w/v%, respectively. The pH was adjusted to 5.0 with 0.1M acetic acid/sodium acetate buffer solution. The 5 U. insulin preparation was administered into the vagina of the rat with a small cotton ball. Serum glucose at 2 hours after drug administration was compared with that before drug administration. It was noted that at 2 hours after drug administration, the blood sugar level decreased about 30% in comparison with that prior to drug administration.

[5] = test system: aged, oophorectomized rats; experiment: Serum calcium decrease by porcine calcitonin in aged oophorectomized rats; assay type: in vivo, rat; details: intramuscular injection (femoral bicipital muscle), different concentrations
Protocol: The ovaries of 30-week-old female Wister rats were excised about one month before use in the experiment.
Prior to this experiment, a separate experiment was performed to investigate the susceptibility of aged, oophorectomized rats to porcine calcitonin. Different concentrations of calcitonin were injected into rats in the femoral bicipital muscle, and the decreasing serum calcium was determined.
Following the procedure of Examples 1 and 2, a dose of 4 I.U. calcitonin per rat was prepared and administered intravaginally by inserting a small cotton ball in the vagina. Following the procedure of Examples 1 and 2, blood was extracted and the blood calcium concentration was determined.

[6] = test system: 5-week-old Wister male rats; experiment: Effect of SDS on calcitonin stability: bioassay of stored preparations by intramuscular injection; assay type: in vivo, rat
Protocol: A porcine calcitonin (P--CT) pharmaceutical preparation according to the invention was prepared by the method described in Examples 1 and 2, and the stability of porcine calcitonin in the resultant preparation was investigated. Thus, 1 ml of 3 mg/ml bovine serum albumin (BSA) solution was added to 40 I.U. of porcine calcitonin, and the mixture was divided into two equal portions. SDS was added to one of the portions to make a final concentration of 0.1 w/v%; and no SDS was added to the other portion. The pH of both of the preparations was then adjusted to pH 5 with acetic acid/sodium acetate buffer (0.1M) solution. These two preparations were then stored at 37° C. for 8 days. The biological activity of calcitonin of the 8-day stored preparations was then investigated using 5-week-old Wister male rats. A dosage of 0.12 I.U./kg calcitonin of these two preparations was administered to the rats by injection into the femoral muscle. One hour after drug administration, blood was extracted from the right external jugular vein, and the blood calcium content was determined.

[7] = test system: 5-week-old male Wister rats; experiment: Effect of pH and human serum albumin on calcitonin stability: bioassay by intramuscular injection; assay type: in vivo, rat; details: 0.03 I.U./ml, 4° C. for one week, bioassay 0.06 I.U./kg i.m.
Protocol: Using blood calcium decreasing ratio as an indication, the effect of pH and human serum albumin (HSA) on the stability of calcitonin in the preparation of this invention was investigated using 5-week-old male Wister rats.
Purified porcine calcitonin (P--CT) was dissolved in 0.1M acetic acid buffer solutions of pH 3.0 and pH 5.0 and 0.1M phosphoric acid buffer solution of pH 6.8 so that each of the solutions contained 0.03 I.U./ml of porcine calcitonin. Each calcitonin solution (pH 3.0, 5.0, 6.8) was divided into two parts. In each case, to one portion of the calcitonin solutions 3 mg/ml of HSA was added, while no treatment was performed on the other portion. The resultant preparations were stored at 4° C. for one week. These calcitonin preparations were then each injected into the femoral bicipital muscle of the rats at a dosage of 0.06 I.U. per kg body weight. An appropriate quantity of blood was extracted from the right external jugular vein, and blood […] was determined with a Calcium C-Test kit.

oophorectomized rats [8] = experiment: Serum calcium and serum calcitonin after intravaginal S-CT suppository; assay type: in vivo, rat; details: PEG suppository, 250 micrograms S-CT, BSA, Nonidet P-40, sodium caprate, 1, 2 and 4 hrs
Protocol: The model animals and experimental procedures are similar to that described in Example 10. The suppositories used in this Example were prepared as follows. 1 mg of S--CT was dissolved in 100 microliters of 0.1M acetate buffer solution (pH 5) containing 1.5 mg of BSA (bovine serum albumin), 10 mg of Nonidet P-40, and 5 mg of sodium caprate. 383 mg of suppository base composed of PEG 4000 (33%), PEG 6000 (47%) and distilled water (20%) was warmed to 45° to 50° C., then mixed well with the S--CT solution using a Vortex mixer for 1 min, then transferred into a brass suppository mold and cooled to approximately 4° C. for 2 hrs. 125 mg of S--CT suppository contained 250 micrograms of S--CT. 250 micrograms of a S--CT suppository was administered into the rat vagina. 1, 2, and 4 hrs after administration, blood samples were taken, and the serum calcium concentration and the serum calcitonin were determined by the same method used in Example 10.

[9] = 3 mg/ml BSA, pH 5.0, after 2 hours

In the case of `CCCCCCCCCCCCOS(=O)(=O)[O-].[Na+]` [SDS, Sodium lauryl sulfate], the “decrease of protease activity in comparison with the control group” value (intravaginal protease; 1% SDS added group versus control without SDS) was “about 30%”, the “protease activity relative to control (control = 100.0)” value (intravaginal protease; 1% SDS in calcitonin preparation, vaginal wash 2 hours after insertion) was 29.2 and the protease activity (intravaginal protease; 1% SDS in calcitonin preparation, vaginal wash plus cotton ball 2 hours after insertion) was 6.84 BAEE units/mg protein. The “ratio of decreased serum calcium concentration against the control” value ([1]; porcine calcitonin 20 I.U./ml, 3 mg BSA, SDS 0.05, 0.1, 0.5 and 1 w/v%, pH 5.0, 50 microliters intravaginal, 2 hours, control without SDS) was “increased correspondingly with increasing concentration of SDS”.
Human calcitonin [HCT] was tested, and the “serum calcitonin (RIA)” value (oophorectomized rats [2]) was “increased proportionally to the increase in the dosage of calcitonin administered into the vagina”, the serum calcium (oophorectomized rats [2]) was “decreased correspondingly with an increase in calcitonin dosage” and the “serum calcitonin (RIA)” value (oophorectomized rats [3]) was “increased proportionally to the increase in the dosage of calcitonin administered into the vagina”. The serum calcium (oophorectomized rats [3]) was “decreased correspondingly with increase in calcitonin dosage”.
In the case of insulin, the “Glucose Concentration in Serum” value (oophorectomized rats [4]; [9]) was 53 ± 24.6 mg/dL, the “Glucose Concentration in Serum relative to prior to administration (100)” value (oophorectomized rats [4]; [9]) was 70.7% and the “decrease of blood sugar level in comparison with that prior to drug administration” value (oophorectomized rats [4]; BSA, 2 hours) was “about 30%”.
With “porcine calcitonin (CSNLSTCVLSAYWRNLNNFHRFSGMGFGPETP; ends and bridges not checked; cysteine pairing not given here; UniProt P01259 1-32, looked up) [P-CT]” the “largest ratio of decreased serum calcium against control” value [5] was “about 10%”, the “Ratio of Decreased Calcium Concentration Against Control, 0 day” value ([6]; P-CT (40 I.U.)/0.3% BSA/ml, pH 5.0, freshly made, 0.12 I.U./kg i.m., 1 hour) was 20.7 and the “Ratio of Decreased Calcium Concentration Against Control, 8 days (at 37° C.)” value ([6]; P-CT (40 I.U.)/0.3% BSA/ml, pH 5.0, stored 8 days at 37° C., 0.12 I.U./kg i.m., 1 hour) was 11.1. For the same molecule, the “biological activity after the 8-day storage period” value ([6]; stored at 37° C. for 8 days, pH 5, compared with freshly made preparation) was “decreased to about half that of the freshly made preparation”, the “stability of calcitonin in pH 6.8 solution with HSA” value ([7]; 3 mg/ml HSA added) was “became as stable as calcitonin in a solution of pH 3.0 or 5.0” and the “stability of calcitonin in buffer solutions without HSA, pH 3.0 and 5.0” value ([7]; 0.1M acetic acid buffer) was “stable”. For the same molecule, the “stability of calcitonin in buffer solution without HSA, pH 6.8” value ([7]; 0.1M phosphoric acid buffer) was “unstable”, the “ratio of decreased serum calcium against control (dose response)” value ([1]; 2, 10, 20, 40 and 80 I.U./ml porcine calcitonin, 3 mg/ml BSA, 1 w/v% SDS, pH 5.0, intravaginal) was “exhibited an increase proportional to the increase of calcitonin concentration” and the “largest ratio of decreased serum calcium against control” value ([1]; 2-80 I.U./ml porcine calcitonin, 3 mg/ml BSA, 1 w/v% SDS, intravaginal, young oophorectomized rats) was 30%.
salmon calcitonin [S--CT] was tested, and the “absorption of S-CT and its biological activity” value (oophorectomized rats [8]) was “exhibit a dose-dependent response”.
